Measurements taken from patent US11053223B2, “Phenoxyquinazoline compounds and their use in treating cancer” (AstraZeneca AB, priority 2017, dated 2021).

Assays:
[1] = biological target: T1, KIT exon11 deletion (557-558) and secondary mutation T670I (Homo sapiens, UniProt P10721, DEL557-558/T670I); experiment: MTS viability assay, Ba/F3 expressing KIT exon11 deletion (557-558) and T670I; format: cell-based; conditions: 72 h, KIT exon11 deletion (557-558) plus secondary mutation, mean of at least 3 biological replicates
T1 construct: expressed in transfected cells; host or cells: Ba/F3 cells infected with lentivirus (pLVX-IRES Puro vector)
Description: (§1) 3 different KIT cDNA encoding for the exon11 deletion (557-558) and a secondary mutation (V654A, T670I, D816H) from Genescript were cloned into pLVX-IRES Puro vector(Clontech). Lentiviral particles were generated using Trans-lentiviral ORF packaging kit (TLP 5918) from Thermo Scientific (Waltham, Mass.) in HEK293-T/17 cells, according to the manufacturer's instructions.
(§2) Exponentially grown Ba/F3 cells (1.5×10^6 cells in 2 ml medium) were infected with 2 ml of viral suspension in a 6-well plate in the presence of mIL-3 (10 ng/ml) and polybrene (4 μg/ml) (Sigma Aldrich, St. Louis, Mo.) and incubated for 24 h. After 24 h, the cells were centrifuged and the viral supernatant was discarded. The cells were then re-suspended in fresh medium and allowed to recover for another day. The following day, the cells were seeded in complete medium without murine IL-3. After a week or two, when cells started proliferating, a selection was carried out by gradually increasing the puromycin concentration to 0.5 ug/ml. Once the cells were growing exponentially in puromycin, batches of cells were frozen down for banking.
(§3) The impact of KIT inhibitors on the viability of Ba/F3 expressing KIT mutations was determined using an MTS assay, which is a colorimetric sensitive quantification of viable cells in proliferation and cytotoxicity assay. In the MTS assay […] in the presence of phenazine methosulfate (PMS) was used. The mitochondrial reductase forms a formazan which absorbs at 490 nm. Cells in exponential growth phase were added to 384-well plates containing pre-dispensed compounds (top concentration 10 uM, 10-point curve). The cells were incubated for 72 h at 37° C. and 5% CO2. After 72 h, MTS reagent was added to the plates and incubated an additional 2 h at 37° C. before measuring the absorbance at 490 nm on a Tecan microplate reader using Magellan Software (Tecan Trading AG, Switzerland).
(§4) The absorbances were normalized as follows: (Read-Day0 control)/(Day3 control-Day0 control)*100. The GI50 values were generated using Genedata Screener software (Genedata; Lexington, Mass.). A non-linear regression with constraints for top and bottom between 100 and −100 and no constraint on the Hill coefficient was used to generate GI50 values. The GI50 values reported below are the calculated mean result of at least 3 biological replicates across all the cell lines tested.

[2] = biological target: T2, KIT exon11 deletion (557-558) and secondary mutation V654A (Homo sapiens, UniProt P10721, DEL557-558/V654A); experiment: MTS viability assay, Ba/F3 expressing KIT exon11 deletion (557-558) and V654A; format: cell-based; conditions: 72 h, KIT exon11 deletion (557-558) plus secondary mutation, mean of at least 3 biological replicates
T2 construct: expressed in transfected cells; host or cells: Ba/F3 cells infected with lentivirus (pLVX-IRES Puro vector)
Description: as §1, §2, §3, §4

[3] = system: Tel-KDR (KDR K790-V1356 fused to the C-terminus of Tel); experiment: MTS viability assay, Ba/F3 expressing Tel-KDR; format: cell-based; conditions: 72 h, Ba/F3 cells, mean of at least 3 biological replicates
Description: Tel-KDR myc was cloned into pBCS2004, a retroviral vector, wherein KDR (K790-V1356) is fused to the C-terminus of Tel. Retroviral particles were generated in HEK293T cells. The Tel-KDR plasmid was co-transfected with helper viruses (gag-Pol and VSV-G) into HEK293T cells using calcium phosphate and the virus was harvested 72 h after transfection.
as §2, §3, §4

Ba/F3-Parental = experiment: MTS viability assay, Ba/F3 parental cells; format: cell-based; conditions: Mus musculus, BaF3, 72 h, top concentration 10 uM, mean of at least 3 biological replicates
Description: as §3, §4

[4] = biological target: T3, KIT exon11 deletion (557-558) and secondary mutation D816H (Homo sapiens, UniProt P10721, D816H/DEL557-558); experiment: MTS viability assay, Ba/F3 expressing KIT exon11 deletion (557-558) and D816H; format: cell-based; conditions: 72 h, KIT exon11 deletion (557-558) plus secondary mutation, mean of at least 3 biological replicates
T3 construct: expressed in transfected cells; host or cells: Ba/F3 cells infected with lentivirus (pLVX-IRES Puro vector)
Description: as §1, §2, §3, §4

GIST [5] = conditions: PhIII study, patients with GIST after relapse to imatinib and sunitinib; cited from earlier work
GIST [6] = conditions: within 2 years; cited from earlier work

T1 sequence (P10721 with tags, fused parts or gaps DEL557-558/T670I): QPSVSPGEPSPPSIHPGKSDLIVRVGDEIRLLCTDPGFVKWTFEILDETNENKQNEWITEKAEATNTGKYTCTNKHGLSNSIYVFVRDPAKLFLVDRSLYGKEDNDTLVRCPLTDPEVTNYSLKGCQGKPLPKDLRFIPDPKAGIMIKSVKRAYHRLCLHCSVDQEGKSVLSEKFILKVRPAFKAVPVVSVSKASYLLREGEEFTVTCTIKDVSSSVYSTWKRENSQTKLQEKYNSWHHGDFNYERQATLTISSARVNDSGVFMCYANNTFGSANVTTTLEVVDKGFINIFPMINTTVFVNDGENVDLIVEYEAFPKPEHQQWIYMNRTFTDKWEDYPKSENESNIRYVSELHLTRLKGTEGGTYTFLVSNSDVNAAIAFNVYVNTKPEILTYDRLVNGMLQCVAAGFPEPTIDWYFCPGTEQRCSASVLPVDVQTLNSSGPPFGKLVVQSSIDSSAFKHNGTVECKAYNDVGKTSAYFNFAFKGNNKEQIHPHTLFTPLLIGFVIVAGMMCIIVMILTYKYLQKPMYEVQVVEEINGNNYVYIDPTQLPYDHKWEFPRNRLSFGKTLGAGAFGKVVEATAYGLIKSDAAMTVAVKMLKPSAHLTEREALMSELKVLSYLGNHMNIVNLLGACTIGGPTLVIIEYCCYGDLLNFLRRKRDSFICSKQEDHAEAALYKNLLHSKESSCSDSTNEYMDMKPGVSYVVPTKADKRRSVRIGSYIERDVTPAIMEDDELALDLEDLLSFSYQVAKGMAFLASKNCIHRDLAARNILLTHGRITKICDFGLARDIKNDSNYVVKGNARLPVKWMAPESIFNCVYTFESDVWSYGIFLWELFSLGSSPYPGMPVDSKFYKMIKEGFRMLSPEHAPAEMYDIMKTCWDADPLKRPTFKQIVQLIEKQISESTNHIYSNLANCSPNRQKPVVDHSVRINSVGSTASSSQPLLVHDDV
T2 sequence (P10721 with tags, fused parts or gaps DEL557-558/V654A): as the sequence (P10721 with tags, fused parts or gaps DEL557-558/T670I) above, with V627A, I643T counted along it
T3 sequence (P10721 with tags, fused parts or gaps DEL557-558/D816H): as the sequence (P10721 with tags, fused parts or gaps DEL557-558/T670I) above, with I643T, D789H counted along it

Compound	Ba/F3-T6701 GI50 [1] [nM]	Ba/F3-V654A GI50 [2] [nM]	GI50 [3] [nM]	GI50 (Ba/F3-Parental) [nM]	Ba/F3-D816H GI50 [4] [nM]	median PFS (GIST [5]) [months]	patients developed resistance (GIST [6]) [%]
COc1cc2c(Oc3ccc(NC(=O)Cn4cc(C(C)C)nn4)cc3)ncnc2cc1O[C@@H]1CCOC1 (single isomer, unassigned) [Example 12]	23	11	840	≥ 10000	22		
COc1cc2c(Oc3ccc(NC(=O)Cn4cc(C(C)C)nn4)cc3)ncnc2cc1O[C@H]1CCOC1 (single isomer, unassigned) [Example 13]	30	13	577	≥ 10000	24		
COc1cc2ncnc(Oc3ccc(NC(=O)Cn4cc(C(C)C)nn4)cc3)c2cc1OC [Example 1, N-(4-((6,7-Dimethoxyquinazolin-4-yl)oxy)phenyl)-2-(4-isopropyl-1H-1,2,3-triazol-1-yl)acetamide]	17	3	600	≥ 10000	19		
COc1cc2ncnc(Oc3ccc(NC(=O)Cn4cc(C5CC5)nn4)cc3)c2cc1OC [Example 2, 2-(4-Cyclopropyl-1H-1,2,3-triazol-1-yl)-N-(4-((6,7-dimethoxyquinazolin-4-yl)oxy)phenyl)acetamide]	68	4	1930	≥ 10000	95		
COc1cc(Oc2ncnc3cc(OC)c(OC)cc23)ccc1NC(=O)Cn1cc(C(C)C)nn1 [Example 3, N-(4-((6,7-Dimethoxyquinazolin-4-yl)oxy)-2-methoxyphenyl)-2-(4-isopropyl-1H-1,2,3-triazol-1-yl)acetamide]	23	13	1080	≥ 10000	41		
COc1cc2ncnc(Oc3ccc(NC(=O)Cn4cc(C(C)C)nn4)cc3F)c2cc1OC [Example 4, N-(4-((6,7-Dimethoxyquinazolin-4-yl)oxy)-3-fluorophenyl)-2-(4-isopropyl-1H-1,2,3-triazol-1-yl)acetamide]	8	1	142	≥ 10000	15		
COCCOc1cc2ncnc(Oc3ccc(NC(=O)Cn4cc(C(C)C)nn4)cc3)c2cc1OC [Example 5, 2-(4-Isopropyl-1H-1,2,3-triazol-1-yl)-N-(4-((6-methoxy-7-(2-methoxyethoxy)quinazolin-4-yl)oxy)phenyl)acetamide]	11	8	289	≥ 10000	15		
COc1cc2c(Oc3ccc(NC(=O)Cn4cc(C(C)C)nn4)cc3)ncnc2cc1OCCN1CCCC1 [Example 6, 2-(4-Isopropyl-1H-1,2,3-triazol-1-yl)-N-(4-((6-methoxy-7-(2-(pyrrolidin-1-yl)ethoxy)quinazolin-4-yl)oxy)phenyl)acetamide]	72	22	2770	≥ 10000	55		
COc1cc2c(Oc3ccc(NC(=O)Cn4cc(C(C)C)nn4)cc3)ncnc2cc1OCCN(C)C [Example 7, N-(4-((7-(2-(Dimethylamino)ethoxy)-6-methoxyquinazolin-4-yl)oxy)phenyl)-2-(4-isopropyl-1H-1,2,3-triazol-1-yl)acetamide]	57	15	2520	≥ 10000	41		
COc1cc2c(Oc3ccc(NC(=O)Cn4cc(C(C)C)nn4)cc3)ncnc2cc1OCCO [Example 8, N-(4-((7-(2-Hydroxyethoxy)-6-methoxyquinazolin-4-yl)oxy)phenyl)-2-(4-isopropyl-1H-1,2,3-triazol-1-yl)acetamide]	55	25	1160	≥ 10000	75		
COc1cc2c(Oc3ccc(NC(=O)Cn4cc(C(C)C)nn4)cc3)ncnc2cc1OC1CCOCC1 [Example 9, 2-(4-Isopropyl-1H-1,2,3-triazol-1-yl)-N-(4-((6-methoxy-7-((tetrahydro-2H-pyran-4-yl)oxy)quinazolin-4-yl)oxy)phenyl)acetamide]	77	17	2110	≥ 10000	46		
COc1cc2c(Oc3ccc(NC(=O)Cn4cc(C(C)C)nn4)cc3)ncnc2cc1OC1COC1 [Example 10, 2-(4-Isopropyl-1H-1,2,3-triazol-1-yl)-N-(4-((6-methoxy-7-(oxetan-3-yloxy)quinazolin-4-yl)oxy)phenyl)acetamide]	74	18	1840	≥ 10000	51		
COc1cc2c(Oc3ccc(NC(=O)Cn4cc(C(C)C)nn4)cc3)ncnc2cc1OC(C)C [Example 11, N-[4-(7-Isopropoxy-6-methoxy-quinazolin-4-yl)oxyphenyl]-2-(4-isopropyl-1H-1,2,3-triazol-1-yl)acetamide]	57	16	903	≥ 10000	28		
CNC(=O)c1cc(Oc2ccc(NC(=O)Nc3ccc(Cl)c(C(F)(F)F)c3)c(F)c2)ccn1 [Regorafenib]						4.8	
Cc1ccc(NC(=O)c2ccc(CN3CCN(C)CC3)cc2)cc1Nc1nccc(-c2cccnc2)n1 [imatinib, Imatinib]							50
